Results on 32 molecules are retold here after patent US10233177B2, “TRPV1 vanilloid receptor antagonists with a bicyclic portion” (Serentrix LLC, priority 2010, dated 2019).

Read-outs that look alike come from different tables or passages of the source.

The target in this test is TRPV1 (Rattus norvegicus (Rat), UniProt O35433). Put plainly: Ca2+ fluorescence measurements in cultured rat dorsal root ganglia neurons (capsaicin-induced calcium uptake). Type of test: cell-based. The note with it: for inhibition at 0.3 µM: DRG neuron.
Setting [1] is: Table 3, formula IF-H, 300 nM against calcium uptake induced by 30 nM capsaicin, rat DRG neurons, read-out: % inhibition at 300 nM.
The mark [2] stands for this setting: Table 1, formula IA-C, 300 nM against calcium uptake induced by 30 nM capsaicin, rat DRG neurons, read-out: % inhibition at 300 nM.
[3] abbreviates: Table 1, against capsaicin-evoked [Ca2+]i mobilization, rat DRG neurons, read-out: IC50.
The mark [4] stands for this setting: rat DRG neurons, read-out: IC50 against capsaicin-evoked [Ca2+]i mobilization.
[5] abbreviates: 300 nM, rat DRG neurons, read-out: abolition of capsaicin response at 300 nM.
[6] abbreviates: capsaicin-induced calcium uptake, rat DRG neurons, read-out: inhibition of the calcium uptake.

Chain of TRPV1 (O35433 whole entry): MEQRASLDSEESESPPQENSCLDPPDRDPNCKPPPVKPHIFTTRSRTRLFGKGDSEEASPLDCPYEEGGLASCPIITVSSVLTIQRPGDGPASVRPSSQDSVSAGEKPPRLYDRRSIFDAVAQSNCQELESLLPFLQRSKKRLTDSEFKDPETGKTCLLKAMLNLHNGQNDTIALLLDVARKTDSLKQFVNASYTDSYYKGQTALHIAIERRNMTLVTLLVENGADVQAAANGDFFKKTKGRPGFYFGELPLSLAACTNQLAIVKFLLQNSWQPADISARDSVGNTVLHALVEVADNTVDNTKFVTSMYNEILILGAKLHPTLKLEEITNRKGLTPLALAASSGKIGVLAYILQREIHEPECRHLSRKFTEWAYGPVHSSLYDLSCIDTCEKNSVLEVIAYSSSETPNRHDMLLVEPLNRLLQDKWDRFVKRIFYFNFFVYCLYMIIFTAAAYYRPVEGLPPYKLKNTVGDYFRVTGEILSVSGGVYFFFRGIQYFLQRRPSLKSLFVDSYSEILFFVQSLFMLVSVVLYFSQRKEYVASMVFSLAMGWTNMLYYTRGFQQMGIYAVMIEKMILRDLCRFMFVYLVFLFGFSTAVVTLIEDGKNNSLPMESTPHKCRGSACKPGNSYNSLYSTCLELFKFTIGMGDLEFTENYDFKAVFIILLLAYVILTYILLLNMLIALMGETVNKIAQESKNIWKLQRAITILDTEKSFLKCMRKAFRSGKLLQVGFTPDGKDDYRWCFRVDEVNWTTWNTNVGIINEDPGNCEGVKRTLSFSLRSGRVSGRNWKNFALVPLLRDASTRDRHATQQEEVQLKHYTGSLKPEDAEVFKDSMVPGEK

`O=C(NCc1ccc(C(F)(F)F)cc1)c1cccc2oc(=O)[nH]c12` [Example 59, N-(4-(trifluoromethyl)benzyl)-2,3-dihydro-2-oxobenzo[d]oxazole-4-carboxamide]: the inhibition at 0.3 µM under setting [1] is 5%.

On to `O=C(NCc1ccc(C(F)(F)F)cc1)Nc1cccc2oc(=O)[nH]c12` [Example 24, 1-(4-(trifluoromethyl)benzyl)-3-(2,3-dihydro-2-oxobenzo[d]oxazol-4-yl)urea], for which the inhibition at 0.3 µM under setting [2] is 40%.

On to `O=C1COc2c(cccc2NC(=O)NCc2ccc(C(F)(F)F)cn2)N1` [Example 83, 1-(3-oxo-4H-1,4-benzoxazin-8-yl)-3-[[5-(trifluoromethyl)-2-pyridyl]methyl]urea], for which the inhibition at 0.3 µM under setting [2] worked out at 57%.

For `CN(C)CCOc1cc(C(F)(F)F)ccc1CNC(=O)Nc1cccc2[nH]c(=O)[nH]c12` [Example 73, 1-[[2-(2-dimethylaminoethoxy)-4-(trifluoromethyl)phenyl]methyl]-3-(2-oxo-1,3-dihydrobenzimidazol-4-yl)urea], the inhibition at 0.3 µM under setting [2] is 25%. The IC50 under setting [3] was determined as 1.8 nM and the IC50 under setting [4] was found to be 0.1 nM.

Take `Cc1ccc(CNC(=O)Nc2cccc3[nH]c(=O)[nH]c23)c(N2CCCCC2)c1` [Example 19, 1-(4-methyl-2-(piperidin-1-yl)benzyl)-3-(2,3-dihydro-2-oxo-1H-benzo[d]imidazol-4-yl)urea]: the inhibition at 0.3 µM runs as follows: under setting [5], roughly 100%; under setting [2], 99%; under setting [6], greater than 80%.

Take `CN(C)c1nc(C(F)(F)F)ccc1CNC(=O)Nc1cccc2[nH]c(=O)[nH]c12` [Example 69, 1-[[2-dimethylamino-6-(trifluoromethyl)-3-pyridyl]methyl]-3-(2-oxo-1,3-dihydrobenzimidazol-4-yl)urea]: the inhibition at 0.3 µM under setting [2] is 80% and the inhibition at 0.3 µM under setting [6] is greater than 80%. The IC50 under setting [3] was determined as 92 nM.

With `O=C1COc2c(cccc2NC(=O)NCc2ccc(Cl)cc2N2CCCCC2)N1` [Example 52, 1-(4-chloro-2-(piperidin-1-yl)benzyl)-3-(3,4-dihydro-3-oxo-2H-benzo[b][1,4]oxazin-8-yl)urea], the inhibition at 0.3 µM under setting [5] is roughly 100% and the inhibition at 0.3 µM under setting [2] came out at 98%.

As to `O=C(Cc1ccc(C(F)(F)F)cc1)Nc1cccc2[nH]c(=O)[nH]c12` [Example 55, 2-(4-(trifluoromethyl)phenyl)-N-(2,3-dihydro-2-oxo-1H-benzo[d]imidazol-4-yl)acetamide], the inhibition at 0.3 µM (Table 2, formula ID-E, 300 nM against calcium uptake induced by 30 nM capsaicin, rat DRG neurons, read-out: % inhibition at 300 nM) worked out at 10%.

With `O=C(NCc1ccc(N2CCCC2)cc1)Nc1cccc2[nH]c(=O)[nH]c12` [Example 15, 1-(4-(pyrrolidin-1-yl)benzyl)-3-(2,3-dihydro-2-oxo-1H-benzo[d]imidazol-4-yl)urea], under setting [2], the inhibition at 0.3 µM came to 54%.

Take `O=C(NCc1ccc(N2CCCCC2)cc1)Nc1cccc2[nH]c(=O)[nH]c12` [Example 16, 1-(4-(piperidin-1-yl)benzyl)-3-(2,3-dihydro-2-oxo-1H-benzo[d]imidazol-4-yl)urea]: the inhibition at 0.3 µM was 86% under setting [2] and greater than 80% under setting [6].

Take `O=C1COc2c(cccc2NC(=O)NCc2ccc(C(F)(F)F)nc2N2CCCCC2)N1` [Example 78, 1-(3-oxo-4H-1,4-benzoxazin-8-yl)-3-[[2-(1-piperidyl)-6-(trifluoromethyl)-3-pyridyl]methyl]urea]: the inhibition at 0.3 µM is, setting by setting: under setting [5], roughly 100%; under setting [2], 100%; under setting [6], greater than 80%. For the same molecule, under setting [4], the IC50 is 0.61 nM.

With `CN(C)c1cc(C(F)(F)F)ccc1CNC(=O)Nc1cccc2[nH]c(=O)[nH]c12` [Example 4, 1-(2-(dimethylamino)-4-(trifluoromethyl)benzyl)-3-(2,3-dihydro-2-oxo-1H-benzo[d]imidazol-4-yl)urea], the inhibition at 0.3 µM is roughly 100% under setting [5], 100% under setting [2] and greater than 80% under setting [6]. In addition, the IC50 was determined as 4.07 nM under setting [3] and 4.07 nM under setting [4].

For `CN(C)c1cc(Cl)ccc1CNC(=O)Nc1cccc2[nH]c(=O)[nH]c12` [Example 11, 1-(4-chloro-2-(dimethylamino)benzyl)-3-(2,3-dihydro-2-oxo-1H-benzo[d]imidazol-4-yl)urea], the inhibition at 0.3 µM was 82% under setting [2] and greater than 80% under setting [6]. Also, the IC50 under setting [3] was determined as 12 nM.

On to `O=C1COc2cccc(C(=O)NCc3ccc(C(F)(F)F)cc3N3CCCCC3)c2N1` [Example 63, N-(4-(trifluoromethyl)-2-(piperidin-1-yl)benzyl)-3,4-dihydro-3-oxo-2H-benzo[b][1,4]oxazine-5-carboxamide], for which the inhibition at 0.3 µM under setting [1] was found to be 79%.

As to `CC(C)Oc1cc(C(F)(F)F)ccc1CNC(=O)Nc1cccc2c1OCC(=O)N2` [Example 81, 1-[[2-isopropoxy-4-(trifluoromethyl)phenyl]methyl]-3-(3-oxo-4H-1,4-benzoxazin-8-yl)urea], the inhibition at 0.3 µM runs as follows: under setting [5], roughly 100%; under setting [2], 100%; under setting [6], greater than 80%.

Take `Cc1ccc(CNC(=O)Nc2cccc3c2OCC(=O)N3)cc1` [Example 79, 1-(3-oxo-4H-1,4-benzoxazin-8-yl)-3-(p-tolylmethyl)urea]: under setting [2], the inhibition at 0.3 µM was determined as 54%.

With `O=C(NCc1ccc(C(F)(F)F)cc1N1CCCC1)Nc1cccc2oc(=O)[nH]c12` [Example 30, 1-(4-(trifluoromethyl)-2-(pyrrolidin-1-yl)benzyl)-3-(2,3-dihydro-2-oxobenzo[d]oxazol-4-yl)urea], under setting [2], the inhibition at 0.3 µM was determined as 44%.

Take `O=C(NCc1ccc(Cl)cc1)Nc1cccc2oc(=O)[nH]c12` [Example 33, 1-(4-chlorobenzyl)-3-(2,3-dihydro-2-oxobenzo[d]oxazol-4-yl)urea]: the inhibition at 0.3 µM under setting [2] stood at 16%.

`CN(C)c1cc(C(F)(F)F)ccc1CNC(=O)Nc1cccc2oc(=O)[nH]c12` [Example 29, 1-(2-(dimethylamino)-4-(trifluoromethyl)benzyl)-3-(2,3-dihydro-2-oxobenzo[d]oxazol-4-yl)urea]: the inhibition at 0.3 µM under setting [2] was 8%.

`O=C(NCc1ccc(C(F)(F)F)cc1N1CCOCC1)c1cccc2oc(=O)[nH]c12` [Example 61, N-(4-(trifluoromethyl)-2-morpholinobenzyl)-2,3-dihydro-2-oxobenzo[d]oxazole-4-carboxamide]: under setting [1], the inhibition at 0.3 µM worked out at 15%.

Turning to `O=C(NCc1ccc(C(F)(F)F)cc1-n1cncn1)Nc1cccc2[nH]c(=O)[nH]c12` [Example 8, 1-(4-(trifluoromethyl)-2-(1H-1,2,4-triazol-1-yl)benzyl)-3-(2,3-dihydro-2-oxo-1H-benzo[d]imidazol-4-yl)urea], the inhibition at 0.3 µM under setting [2] is 2%.

For `Cc1ccc(CNC(=O)Nc2cccc3[nH]c(=O)[nH]c23)c(N2CCCCC2)n1` [Example 40, 1-[[6-methyl-2-(1-piperidyl)-3-pyridyl]methyl]-3-(2-oxo-1,3-dihydrobenzimidazol-4-yl)urea], the inhibition at 0.3 µM under setting [2] stood at 52%.

With `O=C(NCc1ccncc1)Nc1cccc2[nH]c(=O)[nH]c12` [Example 20, 1-(2,3-dihydro-2-oxo-1H-benzo[d]imidazol-4-yl)-3-((pyridin-4-yl)methyl)urea], the inhibition at 0.3 µM under setting [2] worked out at 18%.

For the molecule `O=C1COc2c(cccc2NC(=O)NCc2ccc(Cl)nc2)N1` [Example 54, 1-((6-chloropyridin-3-yl)methyl)-3-(3,4-dihydro-3-oxo-2H-benzo[b][1,4]oxazin-8-yl)urea], the inhibition at 0.3 µM under setting [2] is 55%.

As for `CC(C)Oc1cc(C(F)(F)F)ccc1CNC(=O)Nc1cccc2[nH]c(=O)[nH]c12` [Example 67, 1-[[2-isopropoxy-4-(trifluoromethyl)phenyl]methyl]-3-(2-oxo-1,3-dihydrobenzimidazol-4-yl)urea], the inhibition at 0.3 µM was roughly 100% under setting [5], 100% under setting [2] and greater than 80% under setting [6]. Besides, the IC50 under setting [3] was found to be 20 nM.

On to `Cc1ccc(CNC(=O)Nc2cccc3c2OCC(=O)N3)c(OC(C)C)n1` [Example 85, 1-[(2-isopropoxy-6-methyl-3-pyridyl)methyl]-3-(3-oxo-4H-1,4-benzoxazin-8-yl)urea], for which the inhibition at 0.3 µM under setting [2] is 79%.

`Cc1ccc(CNC(=O)Nc2cccc3c2OCC(=O)N3)c(N2CCCC2)c1` [Example 90, 1-[(4-methyl-2-pyrrolidin-1-yl-phenyl)methyl]-3-(3-oxo-4H-1,4-benzoxazin-8-yl)urea]: the inhibition at 0.3 µM under setting [2] was 47%.

On to `O=C(NCc1ccc(C(F)(F)F)cc1F)Nc1cccc2[nH]c(=O)[nH]c12` [Example 2, 1-(2-fluoro-4-(trifluoromethyl)benzyl)-3-(2,3-dihydro-2-oxo-1H-benzo[d]imidazol-4-yl)urea], for which the inhibition at 0.3 µM under setting [2] turned out to be 28%.

`O=C(NCc1ccc(C(F)(F)F)cc1N1CCCCC1)c1cccc2oc(=O)[nH]c12` [Example 60, N-(4-(trifluoromethyl)-2-(piperidin-1-yl)benzyl)-2,3-dihydro-2-oxobenzo[d]oxazole-4-carboxamide]: under setting [1], the inhibition at 0.3 µM turned out to be 8%.

As for `O=C(NCc1ccc(C(F)(F)F)cc1Cl)Nc1cccc2oc(=O)[nH]c12` [Example 26, 1-(2-chloro-4-(trifluoromethyl)benzyl)-3-(2,3-dihydro-2-oxobenzo[d]oxazol-4-yl)urea], under setting [2], the inhibition at 0.3 µM came to 55%.

Consider `O=C1COc2cccc(OC(=O)NCc3ccc(C(F)(F)F)cc3)c2N1` [Example 65, 3,4-dihydro-3-oxo-2H-benzo[b][1,4]oxazin-5-yl 4-(trifluoromethyl)benzylcarbamate], for which the inhibition at 0.3 µM (read-out: % inhibition at 300 nM) came out at 4%.

On to `CC(C)(C)c1ccc(CNC(=O)Nc2cccc3c2OCC(=O)N3)cc1` [Example 89, 1-[(4-tert-butylphenyl)methyl]-3-(3-oxo-4H-1,4-benzoxazin-8-yl)urea], for which the inhibition at 0.3 µM by setting is: under setting [2], 92%; under setting [6], greater than 80%. The IC50 under setting [3] stood at 19.8 nM.

As usually defined, the IC50 is the concentration that inhibits the measured activity by half.
